Drawing on ChEMBL document CHEMBL1147878, “Synthesis and in vitro antimicrobial activity of new 2-[p-substituted-benzyl]-5-[substituted-carbonylamino]benzoxazoles” (2007), this text covers MIC for 15 compounds.

What all share (assay type): functional
The test system of one assay is Pichia kudriavzevii. The experiment in a line: Antifungal activity against Candida krusei ATCC 6258 after 48 hrs by serial dilution method. The conditions noted are these: ATCC 6258, 48 h.
The subject of a further assay is Candida albicans. The assay can be described thus: Antifungal activity against Candida albicans after 48 hrs by serial dilution method.
The subject of a further assay is Pseudomonas aeruginosa. The experiment in a line: Antibacterial activity against Pseudomonas aeruginosa ATCC 10145 after 24 hrs by serial dilution method.
The next assay deals with Escherichia coli. The experiment in a line: Antibacterial activity against Escherichia coli ATCC 23556 after 24 hrs by serial dilution method.
The subject of another assay is Bacillus subtilis. The experiment in a line: Antibacterial activity against Bacillus subtilis ATCC 6633 after 24 hrs by serial dilution method.
Another assay has as its system Nakaseomyces glabratus. The assay can be described thus: Antifungal activity against Candida glabrata after 48 hrs by serial dilution method.
For a further assay, the system named is Staphylococcus aureus. The assay can be described thus: Antibacterial activity against Staphylococcus aureus ATCC 25923 after 24 hrs by serial dilution method.

Converted amounts (≈) assume the structure as drawn. Where only a bound is given, the exact number is not on record here.

For the compound `O=C(Cc1ccc([N+](=O)[O-])cc1)Nc1ccc2oc(Cc3ccccc3)nc2c1`, the minimal inhibitory concentration (MIC) in the assay on Pichia kudriavzevii is 25 µg/mL (≈ 64.5 µM); in the assay on Candida albicans it was 25 µg/mL (≈ 64.5 µM); in the assay on Pseudomonas aeruginosa (ATCC 10145, 24 h) it was 25 µg/mL (≈ 64.5 µM); against Escherichia coli (ATCC 23556, 24 h), 50 µg/mL (≈ 129 µM); against Bacillus subtilis (ATCC 6633, 24 h), 50 µg/mL (≈ 129 µM); against Nakaseomyces glabratus it was 25 µg/mL (≈ 64.5 µM). Moreover, it took 50 µg/mL (≈ 129 µM) to inhibit growth in the assay on Staphylococcus aureus (ATCC 25923, 24 h) (MIC).

Turning to `O=C(CSc1ccccc1)Nc1ccc2oc(Cc3ccccc3)nc2c1`, the MIC was found to be 25 µg/mL (≈ 66.8 µM) against Pichia kudriavzevii; 25 µg/mL (≈ 66.8 µM) with Candida albicans; 25 µg/mL (≈ 66.8 µM) in the assay with Pseudomonas aeruginosa (ATCC 10145, 24 h); 50 µg/mL (≈ 134 µM) with Escherichia coli (ATCC 23556, 24 h); 50 µg/mL (≈ 134 µM) against Bacillus subtilis (ATCC 6633, 24 h); 25 µg/mL (≈ 66.8 µM) against Nakaseomyces glabratus. It took 100 µg/mL (≈ 267 µM) to inhibit growth against Staphylococcus aureus (ATCC 25923, 24 h) (MIC).

Take `O=C(Nc1ccc2oc(Cc3ccc(Cl)cc3)nc2c1)c1ccc(Br)cc1`: the MIC is 100 µg/mL (≈ 226 µM) against Pichia kudriavzevii; 50 µg/mL (≈ 113 µM) in the assay on Candida albicans; 50 µg/mL (≈ 113 µM) against Pseudomonas aeruginosa (ATCC 10145, 24 h); 50 µg/mL (≈ 113 µM) in the assay with Escherichia coli (ATCC 23556, 24 h); 50 µg/mL (≈ 113 µM) in the assay on Bacillus subtilis (ATCC 6633, 24 h); 100 µg/mL (≈ 226 µM) in the assay on Nakaseomyces glabratus. The compound also displayed a minimal inhibitory concentration (MIC) in the assay on Staphylococcus aureus (ATCC 25923, 24 h) of 50 µg/mL (≈ 113 µM).

As for `O=C(Nc1ccc2oc(Cc3ccc(Cl)cc3)nc2c1)c1ccccc1`, the minimum inhibitory concentration (MIC) against Pichia kudriavzevii is 25 µg/mL (≈ 68.9 µM); against Candida albicans, 50 µg/mL (≈ 138 µM); in the assay on Pseudomonas aeruginosa (ATCC 10145, 24 h), 100 µg/mL (≈ 276 µM); with Escherichia coli (ATCC 23556, 24 h), 100 µg/mL (≈ 276 µM); against Bacillus subtilis (ATCC 6633, 24 h) it was 50 µg/mL (≈ 138 µM); in the assay with Nakaseomyces glabratus, 25 µg/mL (≈ 68.9 µM). The compound also came in with an MIC with Staphylococcus aureus (ATCC 25923, 24 h) of 200 µg/mL (≈ 551 µM).

With `O=C(O)c1cn(C2CC2)c2cc(N3CCNCC3)c(F)cc2c1=O` [CIPROFLOXACIN], the minimal inhibitory concentration (MIC) in the assay with Pseudomonas aeruginosa (ATCC 10145, 24 h) came out at 0.78 µg/mL (≈ 2.35 µM); in the assay on Bacillus subtilis (ATCC 6633, 24 h), 1.56 µg/mL (≈ 4.71 µM); against Staphylococcus aureus (ATCC 25923, 24 h) it was 3.12 µg/mL (≈ 9.42 µM).

As for `O=C(Nc1ccc2oc(Cc3ccccc3)nc2c1)c1ccccc1`, the minimal inhibitory concentration (MIC) in the assay with Pichia kudriavzevii was 12.5 µg/mL (≈ 38.1 µM); in the assay on Candida albicans, 50 µg/mL (≈ 152 µM); against Pseudomonas aeruginosa (ATCC 10145, 24 h), 100 µg/mL (≈ 305 µM); in the assay with Escherichia coli (ATCC 23556, 24 h), 100 µg/mL (≈ 305 µM); against Bacillus subtilis (ATCC 6633, 24 h), 50 µg/mL (≈ 152 µM); against Nakaseomyces glabratus, 25 µg/mL (≈ 76.1 µM). This compound also returned an MIC in the assay with Staphylococcus aureus (ATCC 25923, 24 h) of 200 µg/mL (≈ 609 µM).

`Clc1cc(Cl)c(OCC#CI)cc1Cl` [HALOPROGIN] showed an MIC with Candida albicans of 3.12 µg/mL (≈ 8.63 µM).

`O=C(Cc1ccc(Cl)cc1)Nc1ccc2oc(Cc3ccccc3)nc2c1`: the MIC against Pichia kudriavzevii was determined as 25 µg/mL (≈ 66.3 µM); against Candida albicans, 25 µg/mL (≈ 66.3 µM); against Pseudomonas aeruginosa (ATCC 10145, 24 h) it was 50 µg/mL (≈ 133 µM); in the assay on Escherichia coli (ATCC 23556, 24 h), 50 µg/mL (≈ 133 µM); against Bacillus subtilis (ATCC 6633, 24 h), 100 µg/mL (≈ 265 µM); with Nakaseomyces glabratus, 25 µg/mL (≈ 66.3 µM). Besides, the MIC with Staphylococcus aureus (ATCC 25923, 24 h) stood at 100 µg/mL (≈ 265 µM).

For `CC1(C)S[C@@H]2[C@H](NC(=O)[C@H](N)c3ccc(O)cc3)C(=O)N2[C@H]1C(=O)O` [AMOXICILLIN], the minimum inhibitory concentration (MIC) with Pseudomonas aeruginosa (ATCC 10145, 24 h) is more than 200 µg/mL; in the assay on Escherichia coli (ATCC 23556, 24 h), 3.12 µg/mL (≈ 8.54 µM); in the assay with Bacillus subtilis (ATCC 6633, 24 h), 1.56 µg/mL (≈ 4.27 µM); against Staphylococcus aureus (ATCC 25923, 24 h) it was 1.56 µg/mL (≈ 4.27 µM).

Regarding GENTAMICIN, the MIC stood at 12.5 µg/mL in the assay on Pseudomonas aeruginosa, 12.5 µg/mL against Escherichia coli, 1.56 µg/mL against Bacillus subtilis and 3.12 µg/mL against Staphylococcus aureus.

Consider `Clc1ccc(COC(Cn2ccnc2)c2ccc(Cl)cc2Cl)c(Cl)c1` (stereo unspecified) [MICONAZOLE], for which the MIC against Pichia kudriavzevii worked out at 1.56 µg/mL (≈ 3.75 µM); in the assay with Candida albicans it was 3.12 µg/mL (≈ 7.5 µM); against Nakaseomyces glabratus it was 3.12 µg/mL (≈ 7.5 µM).

As to `CN(C)[C@@H]1C(O)=C(C(N)=O)C(=O)[C@@]2(O)C(O)=C3C(=O)c4c(O)cccc4[C@@](C)(O)[C@H]3C[C@@H]12` [TETRACYCLINE], the MIC in the assay with Pseudomonas aeruginosa (ATCC 10145, 24 h) stood at 50 µg/mL (≈ 113 µM); with Escherichia coli (ATCC 23556, 24 h), 3.12 µg/mL (≈ 7.02 µM); with Bacillus subtilis (ATCC 6633, 24 h) it was 1.56 µg/mL (≈ 3.51 µM); against Staphylococcus aureus (ATCC 25923, 24 h), 1.56 µg/mL (≈ 3.51 µM).

For the compound `CN[C@@H]1[C@H](O[C@H]2[C@H](O[C@H]3[C@H](O)[C@@H](O)[C@H](N=C(N)N)[C@@H](O)[C@@H]3N=C(N)N)O[C@@H](C)[C@]2(O)C=O)O[C@@H](CO)[C@H](O)[C@H]1O` (stereo in doubt) [STREPTOMYCIN], the MIC in the assay on Pseudomonas aeruginosa (ATCC 10145, 24 h) is 100 µg/mL (≈ 172 µM); in the assay on Escherichia coli (ATCC 23556, 24 h), 1.56 µg/mL (≈ 2.68 µM); in the assay with Bacillus subtilis (ATCC 6633, 24 h), 50 µg/mL (≈ 86 µM); in the assay with Nakaseomyces glabratus, 13 µg/mL (≈ 22.4 µM); against Staphylococcus aureus (ATCC 25923, 24 h), 3.12 µg/mL (≈ 5.36 µM).

With `CC1(C)S[C@@H]2[C@H](NC(=O)[C@H](N)c3ccccc3)C(=O)N2[C@H]1C(=O)O` [AMPICILLIN], the minimal inhibitory concentration (MIC) against Pseudomonas aeruginosa (ATCC 10145, 24 h) is more than 200 µg/mL; with Escherichia coli (ATCC 23556, 24 h), 12.5 µg/mL (≈ 35.8 µM); in the assay on Bacillus subtilis (ATCC 6633, 24 h), 1.56 µg/mL (≈ 4.46 µM); with Staphylococcus aureus (ATCC 25923, 24 h), 1.56 µg/mL (≈ 4.46 µM).

Compound `Clc1ccccc1C(c1ccccc1)(c1ccccc1)n1ccnc1` [CLOTRIMAZOLE] gave an MIC against Candida albicans of 6.25 µg/mL (≈ 18.1 µM).

For orientation: MIC means the lowest concentration that inhibits growth of the organism. Read a high MIC as weaker potency.
